This passage reports EC50, IC50 and AC50 results from ChEMBL document CHEMBL1201862, “PubChem BioAssay data set” (2004).

Activity calls are given as the source filed them.

Test [1] deals with Intestinal-type alkaline phosphatase (Homo sapiens, UniProt P09923). As to the kind of experiment: activation of human intestinal alkaline phosphatase – biochemical, dose response (AID 488873). Format: functional.
The target in the next test is Albumin (Bos taurus, UniProt P02769). Nature of the test: Counterscreen for inhibitors of T-cell receptor (TCR)-CD3 interaction: Fluorescence-based biochemical high throughput dose response assay to identify inhibitors of T-cell receptor (TCR)-CD3 interaction using a TAMRA-labeled BSA probe. Format: functional.
The target of test [2] is T1, Alkaline phosphatase, tissue-nonspecific isozyme (Homo sapiens, UniProt P05186).
T1 sequence (P05186 whole entry): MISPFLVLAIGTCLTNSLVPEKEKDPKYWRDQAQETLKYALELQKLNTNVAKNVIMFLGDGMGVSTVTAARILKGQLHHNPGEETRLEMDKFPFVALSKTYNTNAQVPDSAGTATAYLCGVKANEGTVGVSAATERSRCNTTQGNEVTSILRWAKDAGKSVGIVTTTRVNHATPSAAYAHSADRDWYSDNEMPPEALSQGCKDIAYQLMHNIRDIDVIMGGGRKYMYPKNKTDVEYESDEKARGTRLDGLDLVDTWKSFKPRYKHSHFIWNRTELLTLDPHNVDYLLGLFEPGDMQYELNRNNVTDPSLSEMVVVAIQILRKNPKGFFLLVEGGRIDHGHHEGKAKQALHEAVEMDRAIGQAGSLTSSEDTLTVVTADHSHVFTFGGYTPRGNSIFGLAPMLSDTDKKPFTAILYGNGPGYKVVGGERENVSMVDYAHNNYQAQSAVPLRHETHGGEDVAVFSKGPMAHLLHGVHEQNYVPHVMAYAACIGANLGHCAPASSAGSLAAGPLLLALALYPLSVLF
Nature of the test: TNAP enzyme inhibition by screening hits, dose response, selectivity assay for mouse IAP inhibitor project, biochemical, human TNAP, uHTS hits (AID 488906). Format: functional.

Test [3] deals with Intestinal-type alkaline phosphatase (Mus musculus, UniProt P24822). Nature of the test: PubChem AID 488785. In kind it is functional.
Test [4] has as its target T2, Tyrosine-protein phosphatase non-receptor type 22 (Homo sapiens, UniProt Q9Y2R2).
T2 sequence (Q9Y2R2 whole entry): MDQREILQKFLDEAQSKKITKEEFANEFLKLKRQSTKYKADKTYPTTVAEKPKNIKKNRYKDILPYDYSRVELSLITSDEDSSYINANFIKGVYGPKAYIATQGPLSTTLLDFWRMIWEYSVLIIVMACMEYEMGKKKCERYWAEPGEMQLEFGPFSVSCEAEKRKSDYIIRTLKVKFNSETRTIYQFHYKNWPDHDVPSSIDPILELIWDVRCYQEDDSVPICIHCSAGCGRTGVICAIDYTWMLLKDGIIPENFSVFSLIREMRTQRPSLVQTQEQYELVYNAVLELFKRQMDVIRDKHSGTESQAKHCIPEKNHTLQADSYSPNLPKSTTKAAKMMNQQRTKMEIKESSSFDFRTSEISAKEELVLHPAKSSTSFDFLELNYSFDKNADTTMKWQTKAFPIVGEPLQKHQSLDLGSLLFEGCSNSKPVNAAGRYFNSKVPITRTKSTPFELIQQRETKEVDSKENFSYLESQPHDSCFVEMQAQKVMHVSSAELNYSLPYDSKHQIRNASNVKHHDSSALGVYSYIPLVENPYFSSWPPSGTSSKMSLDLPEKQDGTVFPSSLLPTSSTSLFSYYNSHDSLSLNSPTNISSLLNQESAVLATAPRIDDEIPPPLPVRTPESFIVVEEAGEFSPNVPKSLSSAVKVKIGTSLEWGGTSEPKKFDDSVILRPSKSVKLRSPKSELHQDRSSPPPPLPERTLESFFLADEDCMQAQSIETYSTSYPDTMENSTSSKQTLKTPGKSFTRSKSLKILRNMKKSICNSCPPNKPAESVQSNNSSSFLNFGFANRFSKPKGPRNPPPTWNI
Format: functional.

For test [5], the target named is T3, Tyrosine-protein phosphatase non-receptor type 7 (Homo sapiens, UniProt P35236).
T3 sequence (P35236 whole entry): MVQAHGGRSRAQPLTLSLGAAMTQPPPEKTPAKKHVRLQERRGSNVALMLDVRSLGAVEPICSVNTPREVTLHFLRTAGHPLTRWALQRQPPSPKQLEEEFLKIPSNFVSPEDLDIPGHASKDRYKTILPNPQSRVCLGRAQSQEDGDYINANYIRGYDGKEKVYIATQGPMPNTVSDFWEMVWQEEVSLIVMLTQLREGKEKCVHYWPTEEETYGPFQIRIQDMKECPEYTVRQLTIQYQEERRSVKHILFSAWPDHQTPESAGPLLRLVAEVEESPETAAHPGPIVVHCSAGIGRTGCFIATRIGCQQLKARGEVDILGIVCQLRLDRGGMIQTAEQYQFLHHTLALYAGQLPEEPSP
In kind it is functional.

Test [6] has as its target T2, Tyrosine-protein phosphatase non-receptor type 22. Format: functional. This is another data set of the same source.
Test [7] deals with T4, G-protein coupled receptor 55 (Homo sapiens, UniProt Q9Y2T6). Nature of the test: blockers of GPR55 signalling, imaged – imaging, image-based, counter-screen for GPR35 antagonist project, SAR follow-up (AID 2397). Format: functional.
The target in test [8] is 72 kDa type IV collagenase (Homo sapiens, UniProt P08253). Nature of the test: Dose Response validation of uHTS RPN11 inhibitor hits using a MMP-2 Fluorescence assay. In kind it is functional.
In test [9] the target is T2, Tyrosine-protein phosphatase non-receptor type 22. As to the kind of experiment: inhibition of lymphoid tyrosine phosphatase LYP – biochemical, pCAP fluorogenic substrate, fluorescence, set 3, SAR follow-up (AID 449727). Format: functional.
Test [10] shares this target. As to the kind of experiment: SAR LYP1 Fluorescent Assay using OMFP substrate for In Vitro dose response studies - Set 3. [Related pubchem assays (depositor defined):AID1779, AID1784, AID2140, AID2686]. Format: functional.
Test [11] deals with T3, Tyrosine-protein phosphatase non-receptor type 7. As to the kind of experiment: inhibition of hematopoietic tyrosine phosphatase HePTP – biochemical, set 2, SAR follow-up (AID 449736). Format: functional.
Test [12] addresses 26S proteasome non-ATPase regulatory subunit 14 (Homo sapiens, UniProt O00487). Nature of the test: inhibition of proteasome subunit RPN11 – biochemical, fluorescence polarization, uHTS hits, confirmation (AID 602368). In kind it is functional.
Test [13] addresses T5, G-protein coupled receptor 35 (Homo sapiens, UniProt Q9HC97). As to the kind of experiment: SAR Analysis for the identification of Selective Antagonists of ERK1/2 Activity in GPR35-Overexpressing U2OS Cells. [Related pubchem assays: 2079, 2058 ]. In kind it is functional, cell-based.
Test [14] deals with T5, G-protein coupled receptor 35. As to the kind of experiment: inhibition of zaprinast-stimulated GPR35 beta-arrestin translocation – imaging, U2OS, beta-arrestin-GFP, zaprinast agonist, primary screen (AID 2058).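 Also: antagonist potency meaning inhibition of agonist-induced arrestin redistribution.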 In kind it is functional.
For test [15], the target named is Tyrosine-protein phosphatase non-receptor type 12 (Homo sapiens, UniProt Q05209). Nature of the test: SAR Selectivity Analysis of small molecule inhibitors of PEST using pCAP in a fluorescence assay. [Related pubchem assays (depositor defined):AID1779, AID1784, AID2135]. Format: functional.
For another test, the target named is Prothrombin (Bos taurus, UniProt P00735). As to the kind of experiment: thrombin protease inhibitors – biochemical, fluorescence polarization, uHTS hits, dose response (AID 602369). In kind it is functional.
In test [16] the target is Lysine-specific demethylase 4C (Homo sapiens, UniProt Q9H3R0). Nature of the test: inhibition of JMJD2C H3K9me3 demethylation – biochemical, DELFIA europium, cherry-picked samples, dose response (AID 488835). In kind it is functional.
The nature of test [17]: Luminescence Cell-Based Dose Retest to Confirm Inhibitors of Cancer Stem Cells. [Related pubchem assays (depositor defined):AID2717, AID2721]. Format: functional. Conditions: Homo sapiens.
In test [18] the target is T6, Cannabinoid receptor 2 (Homo sapiens, UniProt P34972). As to the kind of experiment: SAR analysis of agonists of the Cannabinoid Receptor 2 using an Image-Based Assay. [Related pubchem assays (depositor defined):AID2013, AID2026]. In kind it is functional.
Test [19] has as its target T5, G-protein coupled receptor 35. As to the kind of experiment: SAR analysis of Agonists of the GPR35 Receptor using an Image-Based Assay - Set 2. [Related pubchem assays (depositor defined):AID2013, AID2026]. Format: functional.
In test [20] the target is T4, G-protein coupled receptor 55. Nature of the test: inhibition of LPI-stimulated GPR55 beta-arrestin translocation – imaging, U2OS, beta-arrestin-GFP, LPI agonist, primary screen (AID 2013).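 Also: antagonist potency measured as reduced agonist-driven arrestin aggregation.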 In kind it is functional.
Test [21] addresses T5, G-protein coupled receptor 35. As to the kind of experiment: SAR analysis of Antagonists of the GPR35 Receptor using an Image-Based Assay - Set 3. [Related pubchem assays (depositor defined):AID2013, AID2026]. In kind it is functional.
Test [22] concerns the target T6, Cannabinoid receptor 2. Nature of the test: SAR analysis of antagonists of the Cannabinoid Receptor 2 using an Image-Based Assay. [Related pubchem assays (depositor defined):AID2013, AID2026]. Format: functional.
Test [23] concerns the target T7, Cannabinoid receptor 1 (Homo sapiens, UniProt P21554). Nature of the test: SAR analysis of agonists of the Cannabinoid Receptor 1 using an Image-Based Assay - Set 2. [Related pubchem assays (depositor defined):AID2013, AID2026]. In kind it is functional.
Test [24] concerns the target T7, Cannabinoid receptor 1. As to the kind of experiment: SAR analysis of antagonists of the Cannabinoid Receptor 1 using an Image-Based Assay - Set 2. [Related pubchem assays (depositor defined):AID2013, AID2026]. Format: functional.
In a further test the target is Phosphomannomutase 2 (Homo sapiens, UniProt O15305). As to the kind of experiment: Counter screen SAR assay for PMM2 inhibitors via a fluorescence intensity assay. [Related pubchem assays (depositor defined):AID1545, AID1574].
In test [25] the target is T8, Mannose-6-phosphate isomerase (Homo sapiens, UniProt P34949).
T8 sequence (P34949 whole entry): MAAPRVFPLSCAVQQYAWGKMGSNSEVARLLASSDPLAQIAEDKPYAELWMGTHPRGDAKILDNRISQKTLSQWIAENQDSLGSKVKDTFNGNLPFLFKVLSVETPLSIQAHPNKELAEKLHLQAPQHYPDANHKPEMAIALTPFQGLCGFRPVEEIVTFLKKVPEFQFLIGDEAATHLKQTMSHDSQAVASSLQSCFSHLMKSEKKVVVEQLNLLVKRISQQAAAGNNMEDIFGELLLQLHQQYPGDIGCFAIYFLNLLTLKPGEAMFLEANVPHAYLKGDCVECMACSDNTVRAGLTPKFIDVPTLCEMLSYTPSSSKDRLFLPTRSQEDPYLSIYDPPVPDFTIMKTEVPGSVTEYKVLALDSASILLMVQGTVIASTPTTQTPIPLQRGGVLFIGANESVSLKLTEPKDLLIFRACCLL
As to the kind of experiment: phosphomannose isomerase inhibition – biochemical, fluorescence intensity, confirmation (AID 1535).

The target of test [26] is UDP-galactopyranose mutase (Mycobacterium tuberculosis, UniProt P9WIQ1). As to the kind of experiment: Inhibitors of Mycobacterium tuberculosis UDP-galactopyranose mutase (UGM) enzyme Measured in Biochemical System Using Plate Reader - 2105-02_Inhibitor_Dose_CherryPick_Activity. [Related pubchem assays (depositor defined):AID504439].
Test [27] can be described thus: viability loss of HMLE_sh_eGFP cells – cell-based, luminescence, counter-screen for HMLE_sh_ECad selective toxicity project, dose response (AID 463074).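 Also: HMLE human mammary epithelial cells expressing control shRNA against eGFP.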 In kind it is functional, Homo sapiens.

T5 sequence (Q9HC97 whole entry): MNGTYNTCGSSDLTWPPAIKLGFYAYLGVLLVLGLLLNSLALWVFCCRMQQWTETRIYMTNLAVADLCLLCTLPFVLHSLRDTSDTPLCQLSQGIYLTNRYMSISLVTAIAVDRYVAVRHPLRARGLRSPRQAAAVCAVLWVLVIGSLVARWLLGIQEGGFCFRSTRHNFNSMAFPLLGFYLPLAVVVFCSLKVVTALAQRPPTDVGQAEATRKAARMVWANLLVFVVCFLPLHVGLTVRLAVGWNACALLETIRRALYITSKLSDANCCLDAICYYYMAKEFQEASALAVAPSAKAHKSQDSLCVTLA
T7 sequence (P21554 whole entry): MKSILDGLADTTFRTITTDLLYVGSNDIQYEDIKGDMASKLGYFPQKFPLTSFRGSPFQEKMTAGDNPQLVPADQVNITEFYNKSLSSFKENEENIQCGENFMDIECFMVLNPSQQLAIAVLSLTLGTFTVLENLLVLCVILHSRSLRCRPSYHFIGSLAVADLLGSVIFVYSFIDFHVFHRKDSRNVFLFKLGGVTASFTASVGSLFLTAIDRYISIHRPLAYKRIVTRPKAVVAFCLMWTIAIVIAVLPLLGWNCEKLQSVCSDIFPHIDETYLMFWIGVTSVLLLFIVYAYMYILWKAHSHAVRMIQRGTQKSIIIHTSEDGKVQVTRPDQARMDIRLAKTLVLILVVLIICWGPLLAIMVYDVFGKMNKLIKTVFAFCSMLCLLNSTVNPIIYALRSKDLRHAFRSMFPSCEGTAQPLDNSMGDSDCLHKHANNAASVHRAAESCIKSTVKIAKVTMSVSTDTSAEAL
T6 sequence (P34972 whole entry): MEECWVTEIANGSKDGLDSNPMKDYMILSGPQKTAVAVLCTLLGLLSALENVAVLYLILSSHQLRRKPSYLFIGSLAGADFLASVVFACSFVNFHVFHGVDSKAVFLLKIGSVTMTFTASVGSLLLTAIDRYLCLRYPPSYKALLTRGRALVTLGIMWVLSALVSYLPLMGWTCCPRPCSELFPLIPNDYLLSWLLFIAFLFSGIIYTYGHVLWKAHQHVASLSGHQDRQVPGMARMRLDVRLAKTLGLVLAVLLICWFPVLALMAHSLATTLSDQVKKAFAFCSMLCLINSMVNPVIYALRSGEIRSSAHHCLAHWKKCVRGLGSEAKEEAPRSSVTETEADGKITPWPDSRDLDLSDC
T4 sequence (Q9Y2T6 whole entry): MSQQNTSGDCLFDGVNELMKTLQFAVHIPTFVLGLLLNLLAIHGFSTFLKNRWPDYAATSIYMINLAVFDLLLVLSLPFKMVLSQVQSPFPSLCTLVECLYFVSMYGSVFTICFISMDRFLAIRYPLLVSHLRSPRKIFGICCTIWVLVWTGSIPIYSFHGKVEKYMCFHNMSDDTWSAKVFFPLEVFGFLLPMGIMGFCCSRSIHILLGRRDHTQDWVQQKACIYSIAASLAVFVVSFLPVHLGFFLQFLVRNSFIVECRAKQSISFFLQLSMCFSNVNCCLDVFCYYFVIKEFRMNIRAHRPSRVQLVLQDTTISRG
26S proteasome non-ATPase regulatory subunit 14, sequence (O00487 whole entry): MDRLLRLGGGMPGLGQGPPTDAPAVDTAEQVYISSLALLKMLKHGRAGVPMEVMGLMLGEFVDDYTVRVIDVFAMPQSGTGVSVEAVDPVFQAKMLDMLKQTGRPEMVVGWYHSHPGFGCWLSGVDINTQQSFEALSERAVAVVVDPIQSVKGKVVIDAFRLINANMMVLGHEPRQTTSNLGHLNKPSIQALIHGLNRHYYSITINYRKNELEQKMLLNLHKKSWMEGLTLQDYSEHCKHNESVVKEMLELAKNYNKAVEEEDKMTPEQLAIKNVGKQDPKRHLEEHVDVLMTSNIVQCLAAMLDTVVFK
Tyrosine-protein phosphatase non-receptor type 12, sequence (Q05209 whole entry): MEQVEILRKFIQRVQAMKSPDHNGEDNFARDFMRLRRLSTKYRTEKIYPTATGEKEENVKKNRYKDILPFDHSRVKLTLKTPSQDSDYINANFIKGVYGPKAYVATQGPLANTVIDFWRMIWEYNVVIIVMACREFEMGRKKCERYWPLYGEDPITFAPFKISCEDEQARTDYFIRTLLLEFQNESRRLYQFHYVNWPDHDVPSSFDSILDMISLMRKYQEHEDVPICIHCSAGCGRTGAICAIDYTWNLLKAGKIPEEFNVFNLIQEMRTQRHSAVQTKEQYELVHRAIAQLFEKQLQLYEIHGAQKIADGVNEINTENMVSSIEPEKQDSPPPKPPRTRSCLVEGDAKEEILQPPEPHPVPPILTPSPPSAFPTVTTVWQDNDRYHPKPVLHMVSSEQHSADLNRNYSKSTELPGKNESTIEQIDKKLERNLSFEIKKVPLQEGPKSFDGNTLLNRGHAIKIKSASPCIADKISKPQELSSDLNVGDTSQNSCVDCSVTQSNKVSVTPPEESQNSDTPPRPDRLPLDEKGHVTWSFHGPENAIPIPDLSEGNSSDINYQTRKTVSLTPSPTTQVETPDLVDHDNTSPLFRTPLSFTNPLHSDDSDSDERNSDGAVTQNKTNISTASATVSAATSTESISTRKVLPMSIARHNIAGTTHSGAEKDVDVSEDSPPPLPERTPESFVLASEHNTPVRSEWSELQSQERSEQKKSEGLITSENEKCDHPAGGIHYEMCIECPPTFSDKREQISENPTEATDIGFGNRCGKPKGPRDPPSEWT
Albumin, sequence (P02769 whole entry): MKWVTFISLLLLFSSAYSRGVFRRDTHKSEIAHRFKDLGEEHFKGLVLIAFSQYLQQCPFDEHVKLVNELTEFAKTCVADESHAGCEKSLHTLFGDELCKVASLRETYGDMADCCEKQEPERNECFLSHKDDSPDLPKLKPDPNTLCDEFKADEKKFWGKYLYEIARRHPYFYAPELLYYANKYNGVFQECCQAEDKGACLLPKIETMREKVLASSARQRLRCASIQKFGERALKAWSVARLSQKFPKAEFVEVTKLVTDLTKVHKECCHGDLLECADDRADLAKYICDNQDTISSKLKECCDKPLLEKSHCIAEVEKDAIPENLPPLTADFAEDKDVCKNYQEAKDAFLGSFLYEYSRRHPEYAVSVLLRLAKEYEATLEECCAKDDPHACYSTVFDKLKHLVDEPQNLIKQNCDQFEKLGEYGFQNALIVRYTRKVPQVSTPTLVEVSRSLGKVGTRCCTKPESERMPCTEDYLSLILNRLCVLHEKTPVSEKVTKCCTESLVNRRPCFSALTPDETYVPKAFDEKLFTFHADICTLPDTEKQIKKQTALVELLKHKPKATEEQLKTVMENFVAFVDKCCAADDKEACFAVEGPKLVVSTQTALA
Phosphomannomutase 2, sequence (O15305 whole entry): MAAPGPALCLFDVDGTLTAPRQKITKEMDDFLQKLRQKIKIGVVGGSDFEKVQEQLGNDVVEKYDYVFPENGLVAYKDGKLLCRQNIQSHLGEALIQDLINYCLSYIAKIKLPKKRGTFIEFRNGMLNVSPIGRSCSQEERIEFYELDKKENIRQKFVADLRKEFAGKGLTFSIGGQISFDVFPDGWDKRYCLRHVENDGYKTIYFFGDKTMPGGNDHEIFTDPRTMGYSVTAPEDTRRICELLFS
Intestinal-type alkaline phosphatase (Homo sapiens, UniProt P09923), sequence (P09923 whole entry): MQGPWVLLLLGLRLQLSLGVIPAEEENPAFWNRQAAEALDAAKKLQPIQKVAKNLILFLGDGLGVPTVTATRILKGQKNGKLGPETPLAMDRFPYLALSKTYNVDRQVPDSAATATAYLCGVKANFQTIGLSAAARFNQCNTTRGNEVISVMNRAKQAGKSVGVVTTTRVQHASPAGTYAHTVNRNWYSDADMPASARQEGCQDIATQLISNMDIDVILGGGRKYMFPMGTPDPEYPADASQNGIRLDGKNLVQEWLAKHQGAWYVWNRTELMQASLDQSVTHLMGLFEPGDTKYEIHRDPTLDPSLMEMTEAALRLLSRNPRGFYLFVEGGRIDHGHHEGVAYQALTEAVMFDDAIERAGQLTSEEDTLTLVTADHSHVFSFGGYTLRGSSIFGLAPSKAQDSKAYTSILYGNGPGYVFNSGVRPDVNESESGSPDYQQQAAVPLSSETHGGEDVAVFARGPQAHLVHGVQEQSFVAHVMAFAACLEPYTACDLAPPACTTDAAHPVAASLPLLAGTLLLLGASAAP
72 kDa type IV collagenase, sequence (P08253 whole entry): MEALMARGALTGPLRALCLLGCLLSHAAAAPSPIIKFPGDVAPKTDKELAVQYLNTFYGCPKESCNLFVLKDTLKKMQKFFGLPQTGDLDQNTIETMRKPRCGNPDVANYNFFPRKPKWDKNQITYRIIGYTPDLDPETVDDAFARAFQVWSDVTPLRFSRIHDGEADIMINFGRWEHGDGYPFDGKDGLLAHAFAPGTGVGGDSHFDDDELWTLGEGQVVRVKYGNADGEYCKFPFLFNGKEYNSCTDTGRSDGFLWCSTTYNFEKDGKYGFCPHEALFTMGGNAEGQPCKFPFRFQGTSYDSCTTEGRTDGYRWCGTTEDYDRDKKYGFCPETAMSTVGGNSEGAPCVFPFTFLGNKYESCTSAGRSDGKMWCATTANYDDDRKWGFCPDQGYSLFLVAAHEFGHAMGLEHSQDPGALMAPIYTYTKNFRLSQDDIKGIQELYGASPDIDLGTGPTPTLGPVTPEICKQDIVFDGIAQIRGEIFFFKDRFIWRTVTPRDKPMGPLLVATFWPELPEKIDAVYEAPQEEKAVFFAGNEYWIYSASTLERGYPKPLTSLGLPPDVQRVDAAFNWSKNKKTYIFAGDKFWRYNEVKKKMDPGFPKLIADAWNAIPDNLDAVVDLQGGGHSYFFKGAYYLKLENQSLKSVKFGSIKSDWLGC

On to `O=C(NNC(=S)NC(=O)c1cccs1)c1ccc(O)cc1`, for which the EC50 in test [1] was > 100 µM (inactive). Also, the IC50 is > 94 µM (inactive) on Albumin, > 100 µM (inactive) in test [2] and 11.9 µM (active) in [3].
Regarding `CC(C)n1c(C(=O)OCC(=O)NCc2ccc3c(c2)OCO3)cc2occc21`, the IC50 in [4], in [5] and in test [6] was > 79.4 µM (inactive) each time.
In the case of `O=C(CCCN1C(=O)/C(=C/c2ccc3c(c2)OCO3)SC1=S)Nc1ccc(C(=O)O)cc1`, the IC50 is 20 µM (inactive) in test [7]; 43 µM (active) in test [8]; 47 µM (active) in test [9]; 91.4 µM (active) in [10]; 1.99 µM (active) in [11]; 40.7 µM (active) in test [12]. In addition, the half-inhibitory concentration (IC50) in test [13] was 4.07 µM (active); in [14], 0.563 µM (active); in [15], 12.1 µM (active); at Prothrombin, 38.9 µM (active).
For the compound `c1cc2c(cc1-c1csc(NNC3=NCCCCC3)n1)OCCO2`, the AC50 in [16] is 17 µM (active).
Turning to `Cc1cc(OCC(=O)Nc2ccc(S(=O)(=O)NC3=NCCCCC3)cc2)c(C(C)C)cc1Cl`, the concentration at half-maximal activity (AC50) in test [17] was 6.13 µM (active). Besides, the EC50 (on Cannabinoid receptor 2 [18]; in test [19]; at Cannabinoid receptor 1 [23]) was > 32 µM (inactive) throughout. Moreover, the IC50 in [20] was 1.08 µM (active); in [21] it was > 32 µM (inactive); on Cannabinoid receptor 2 [22], > 32 µM (inactive); at Cannabinoid receptor 1 [24], 3.16 µM (active).
As for `COc1cc([N+](=O)[O-])ccc1/N=c1\ssnc1Cl`, the IC50 was > 100 µM (inactive) at Phosphomannomutase 2 and 3.25 µM (active) in test [25].
`O=C(NCc1ccc(F)cc1)c1cccc2c1C(=O)c1ccc(N3CCC(Cc4ccccc4)CC3)cc1S2(=O)=O`: in test [26], the concentration at half-maximal activity (AC50) was 5.84 µM (active).
Take `CN1CCN(/N=C/c2ccc(OCc3ccccc3)cc2)CC1`: the AC50 is 5.25 µM (active) in test [17] and 56 µM (active) in test [27].
